Experimental data published in US12324893B2, “Triptan microporation delivery system” (PassPort Technologies, Inc., priority 2019, dated 2025).
Read-outs that look alike come from different tables or passages of the source.

Tests used:
[1] = Effect of filament density, poration energy and filament array size on PK profile (Examples 7-9); set-up: species or system guinea pigs; conditions: guinea pig, in vivo; for bioavailability: sc, relative bioavailability against SC injection, read-out: Bioavailability ± SE; for AUC / Cmax / Tmax: topical or ocular
Protocol: (§1) This example describes various effects of filament density. To investigate the effect of filament density on PK profile and side effects (pain by poration and skin irritation), these studies were conducted. The filament density mainly affects the area to be utilized for the transfer of body fluid and ingredients in between skin and patch. The range of filament density was 100 filaments/cm^2 to 400 filaments/cm^2, and the poration energy was from 3 to 4 mJ/filament.
(§2) This example describes various effects to heating energy. The poration energy is related to the pore shape such as depth and width.
(§3) This example describes the selection of a desirable filament array size. Assuming the higher dose than 2 mg dose with the conditions 400 filaments/cm^2 filament density and 4 or 5 mJ/filament energy, filament array size may need to be made bigger. The range of dose was 0.5 to 4 mg, and the range of filament array size was 1.0 to 2.0 cm^2.

[2] = Pain by poration (Examples 7-9); format: in vivo, guinea pigs
Protocol: as §1, §2, §3

[3] = Administration route study in hairless rats (Example 4); format: in vivo; conditions: for AUC / Cmax / Tmax: rat, blood
Protocol: (§4) Hairless rats were used as experimental animals. After oral administration of a drug solution (2.0 ml) containing 2.0 mg of zolmitriptan, blood was collected at a desired time, each medicinal component was extracted according to a conventional method, then blood concentration was quantified by high performance liquid chromatography (LC-MS/MS).
as §4, with “intravenous” for “oral”, “(10 μl)” for “(2.0 ml)”, “2” for “2.0”
as §4, with “intravenous” for “oral”, “(200 μl)” for “(2.0 ml)”, “2” for “2.0”
Hairless rats were used as experimental animals. A drug patch was affixed on the flank side of skin of experimental animals that had undergone microporation treatment under the desired conditions. In this study, microporation condition of transdermal microporation was 400 pores/cm^2, 5.2 mJ/filament. The administration side was 1 cm^2. During the period where the patch was affixed, and after it had adhered, blood was collected at a desired time, each medicinal component was extracted according to a conventional method, then blood concentration was quantified by high performance liquid chromatography (LC-MS/MS). A Patch formulation of this study was 2 mg Zolmitriptan, sucrose 0.5 mg, AA 4 mg, 1 cm^2 non-woven matrix (EH-1212, WHC=4 mg/cm^2),
The given bioavailability of Table 5 is absolute bioavailability against IV injection.

[4] = 0.5 mg, Table 17 #1: dose 0.50 mg, 4 mJ/filament, filament array area 1.0 cm^2, 400 filaments/cm^2
[5] = 2 mg, Table 13 # 1: 100 filaments/cm^2, 3 mJ/filament, area 1.0 cm^2, patch 2.00 mg Zolmitriptan
[6] = 2 mg, Table 13 # 2: 200 filaments/cm^2, 3 mJ/filament, area 1.0 cm^2, patch 2.00 mg Zolmitriptan
[7] = 2 mg, Table 13 # 3: 400 filaments/cm^2, 3 mJ/filament, area 1.0 cm^2, patch 2.00 mg Zolmitriptan
[8] = 2 mg, Table 13 # 4: 100 filaments/cm^2, 4 mJ/filament, area 1.0 cm^2, patch 2.00 mg Zolmitriptan
[9] = 2 mg, Table 13 # 5: 200 filaments/cm^2, 4 mJ/filament, area 1.0 cm^2, patch 2.00 mg Zolmitriptan
[10] = 2 mg, Table 13 # 6: 400 filaments/cm^2, 4 mJ/filament, area 1.0 cm^2, patch 2.00 mg Zolmitriptan
[11] = 2 mg, Table 15 # 1: 400 filaments/cm^2, 2 mJ/filament, area 1.0 cm^2, patch 2.00 mg Zolmitriptan
[12] = 2 mg, Table 15 # 2: 400 filaments/cm^2, 3 mJ/filament, area 1.0 cm^2, patch 2.00 mg Zolmitriptan
[13] = 2 mg, Table 15 # 3: 400 filaments/cm^2, 4 mJ/filament, area 1.0 cm^2, patch 2.00 mg Zolmitriptan
[14] = 2 mg, Table 15 # 4: 400 filaments/cm^2, 5 mJ/filament, area 1.0 cm^2, patch 2.00 mg Zolmitriptan
[15] = 2 mg, Table 17 # 2: dose 2.00 mg, 4 mJ/filament, filament array area 1.0 cm^2, 400 filaments/cm^2
[16] = 3 mg, Table 17 # 3: dose 3.00 mg, 4 mJ/filament, filament array area 1.0 cm^2, 400 filaments/cm^2
[17] = 4 mg, Table 17 # 4: dose 4.00 mg, 4 mJ/filament, filament array area 1.5 cm^2, 400 filaments/cm^2
[18] = 4 mg, Table 17 # 5: dose 4.00 mg, 4 mJ/filament, filament array area 2.0 cm^2, 400 filaments/cm^2
[19] = 4 mg, Table 17 # 6: dose 4.00 mg, 5 mJ/filament, filament array area 1.5 cm^2, 400 filaments/cm^2
[20] = Group 1: 2 mg zolmitriptan, oral administration
[21] = Group 3: 2 mg zolmitriptan, intravenous injection
[22] = topical or ocular, Group 4: 2 mg zolmitriptan, transdermal microporation (400 pores/cm^2, 5.2 mJ/filament, 1 cm^2)

bioavailability ([1]; 0.5 mg, Table 17 #1: dose 0.50 mg, 4 mJ/filament, 1.0 cm^2, 400 filaments/cm^2): 70.6 ± 4.5% | bioavailability ([1]; 2 mg, Table 13 # 1: 100 filaments/cm^2, 3 mJ/filament, 1.0 cm^2, 2.00 mg patch): 11.5 ± 0.6% | bioavailability ([1]; 2 mg, Table 13 # 2: 200 filaments/cm^2, 3 mJ/filament, 1.0 cm^2, 2.00 mg patch): 73.8 ± 8.6% | bioavailability ([1]; 2 mg, Table 13 # 3: 400 filaments/cm^2, 3 mJ/filament, 1.0 cm^2, 2.00 mg patch): 85 ± 5.6% | bioavailability ([1]; 2 mg, Table 13 # 4: 100 filaments/cm^2, 4 mJ/filament, 1.0 cm^2, 2.00 mg patch): 50.3 ± 5.5% | bioavailability ([1]; 2 mg, Table 13 # 5: 200 filaments/cm^2, 4 mJ/filament, 1.0 cm^2, 2.00 mg patch): 49.9 ± 7.7% | bioavailability ([1]; 2 mg, Table 13 # 6: 400 filaments/cm^2, 4 mJ/filament, 1.0 cm^2, 2.00 mg patch): 102 ± 13.3% | bioavailability ([1]; 2 mg, Table 15 # 1: 400 filaments/cm^2, 2 mJ/filament, 1.0 cm^2, 2.00 mg patch): 72.4 ± 10% | bioavailability ([1]; 2 mg, Table 15 # 2: 400 filaments/cm^2, 3 mJ/filament, 1.0 cm^2, 2.00 mg patch): 85 ± 5.6% | bioavailability ([1]; 2 mg, Table 15 # 3: 400 filaments/cm^2, 4 mJ/filament, 1.0 cm^2, 2.00 mg patch): 102 ± 13.3% | bioavailability ([1]; 2 mg, Table 15 # 4: 400 filaments/cm^2, 5 mJ/filament, 1.0 cm^2, 2.00 mg patch): 95.5 ± 5.3% | bioavailability ([1]; 2 mg, Table 17 # 2: dose 2.00 mg, 4 mJ/filament, 1.0 cm^2, 400 filaments/cm^2): 102 ± 13.3% | bioavailability ([1]; 3 mg, Table 17 # 3: dose 3.00 mg, 4 mJ/filament, 1.0 cm^2, 400 filaments/cm^2): 76 ± 4.9% | bioavailability ([1]; 4 mg, Table 17 # 4: dose 4.00 mg, 4 mJ/filament, 1.5 cm^2, 400 filaments/cm^2): 88.9 ± 4.6% | bioavailability ([1]; 4 mg, Table 17 # 5: dose 4.00 mg, 4 mJ/filament, 2.0 cm^2, 400 filaments/cm^2): 105 ± 7.9% | bioavailability ([1]; 4 mg, Table 17 # 6: dose 4.00 mg, 5 mJ/filament, 1.5 cm^2, 400 filaments/cm^2): 97.9 ± 12.3% | AUC [1, 4]: 364 ± 23 ng·h/mL | Cmax [1, 4]: 190 ± 34 ng/mL | Tmax [1, 4]: 0.63 ± 0.13 h | AUC [1, 5]: 238 ± 13 ng·h/mL | Cmax [1, 5]: 60 ± 13 ng/mL | Tmax [1, 5]: 2.75 ± 1.25 h | AUC [1, 6]: 1520 ± 177 ng·h/mL | Cmax [1, 6]: 520 ± 51 ng/mL | Tmax [1, 6]: 1.31 ± 0.19 h | AUC [1, 7]: 1750 ± 116 ng·h/mL | Cmax [1, 7]: 487 ± 63 ng/mL | Tmax [1, 7]: 1.63 ± 0.13 h | AUC [1, 8]: 1040 ± 113 ng·h/mL | Cmax [1, 8]: 222 ± 30 ng/mL | Tmax [1, 8]: 2.75 ± 0.72 h | AUC [1, 9]: 1030 ± 159 ng·h/mL | Cmax [1, 9]: 423 ± 30 ng/mL | Tmax [1, 9]: 0.81 ± 0.06 h | AUC [1, 10]: 2100 ± 275 ng·h/mL | Cmax [1, 10]: 896 ± 191 ng/mL | Tmax [1, 10]: 1.06 ± 0.16 h | AUC [1, 11]: 1490 ± 206 ng·h/mL | Cmax [1, 11]: 484 ± 130 ng/mL | Tmax [1, 11]: 2.33 ± 0.83 h | AUC [1, 12]: 1750 ± 116 ng·h/mL | Cmax [1, 12]: 487 ± 63 ng/mL | Tmax [1, 12]: 1.63 ± 0.13 h | AUC [1, 13]: 2100 ± 275 ng·h/mL | Cmax [1, 13]: 896 ± 191 ng/mL | Tmax [1, 13]: 1.06 ± 0.16 h | AUC [1, 14]: 1970 ± 108 ng·h/mL | Cmax [1, 14]: 752 ± 89 ng/mL | Tmax [1, 14]: 1.33 ± 0.33 h | AUC [1, 15]: 2100 ± 275 ng·h/mL | Cmax [1, 15]: 896 ± 191 ng/mL | Tmax [1, 15]: 1.06 ± 0.16 h | AUC [1, 16]: 2350 ± 152 ng·h/mL | Cmax [1, 16]: 756 ± 115 ng/mL | Tmax [1, 16]: 1.63 ± 0.13 h | AUC [1, 17]: 3660 ± 189 ng·h/mL | Cmax [1, 17]: 1310 ± 129 ng/mL | Tmax [1, 17]: 1.33 ± 0.17 h | AUC [1, 18]: 4310 ± 315 ng·h/mL | Cmax [1, 18]: 2200 ± 358 ng/mL | Tmax [1, 18]: 1.25 ± 0.14 h | AUC [1, 19]: 4030 ± 506 ng·h/mL | Cmax [1, 19]: 1710 ± 185 ng/mL | Tmax [1, 19]: 0.75 ± 0.14 h | Pain by poration ± SD ([2]; Table 13 # 1: 100 filaments/cm^2, 3 mJ/filament, area 1.0 cm^2): 0.0 ± 0.0 | Pain by poration ± SD ([2]; Table 13 # 2: 200 filaments/cm^2, 3 mJ/filament, area 1.0 cm^2): 0.6 ± 0.5 | Pain by poration ± SD ([2]; Table 13 # 3: 400 filaments/cm^2, 3 mJ/filament, area 1.0 cm^2): 0.5 ± 0.6 | Pain by poration ± SD ([2]; Table 13 # 4: 100 filaments/cm^2, 4 mJ/filament, area 1.0 cm^2): 0.8 ± 1.0 | Pain by poration ± SD ([2]; Table 13 # 5: 200 filaments/cm^2, 4 mJ/filament, area 1.0 cm^2): 1.8 ± 0.4 | Pain by poration ± SD ([2]; Table 13 # 6: 400 filaments/cm^2, 4 mJ/filament, area 1.0 cm^2): 1.8 ± 0.5 | Pain by poration ± SD ([2]; Table 15 # 1: 400 filaments/cm^2, 2 mJ/filament, area 1.0 cm^2): 0.3 ± 0.5 | Pain by poration ± SD ([2]; Table 15 # 2: 400 filaments/cm^2, 3 mJ/filament, area 1.0 cm^2): 0.5 ± 0.6 | Pain by poration ± SD ([2]; Table 15 # 3: 400 filaments/cm^2, 4 mJ/filament, area 1.0 cm^2): 1.8 ± 0.5 | Pain by poration ± SD ([2]; Table 15 # 4: 400 filaments/cm^2, 5 mJ/filament, area 1.0 cm^2): 0.8 ± 1.0 | Pain by poration ± SD ([2]; Table 17 #1: dose 0.50 mg, 4 mJ/filament, 1.0 cm^2, 400 filaments/cm^2): 0.5 ± 0.6 | Pain by poration ± SD ([2]; Table 17 # 2: dose 2.00 mg, 4 mJ/filament, 1.0 cm^2, 400 filaments/cm^2): 1.8 ± 0.5 | Pain by poration ± SD ([2]; Table 17 # 3: dose 3.00 mg, 4 mJ/filament, 1.0 cm^2, 400 filaments/cm^2): 0.3 ± 0.5 | Pain by poration ± SD ([2]; Table 17 # 4: dose 4.00 mg, 4 mJ/filament, 1.5 cm^2, 400 filaments/cm^2): 2.3 ± 0.5 | Pain by poration ± SD ([2]; Table 17 # 5: dose 4.00 mg, 4 mJ/filament, 2.0 cm^2, 400 filaments/cm^2): 2.8 ± 0.5 | Pain by poration ± SD ([2]; Table 17 # 6: dose 4.00 mg, 5 mJ/filament, 1.5 cm^2, 400 filaments/cm^2): 2.8 ± 0.5 | BA ([3]; Group 1: 2 mg zolmitriptan, oral administration, absolute bioavailability against IV injection): 11.4% | BA ([3]; Group 3: 2 mg zolmitriptan, intravenous injection, absolute bioavailability against IV injection (reference)): 100.0% | BA ([3]; Group 4: 2 mg zolmitriptan, transdermal microporation (400 pores/cm^2, 5.2 mJ/filament, 1 cm^2), absolute bioavailability against IV injection): 71.4% | AUC [3, 20]: 227 ng·h/mL | Cmax [3, 20]: 74 ng/mL | Tmax [3, 20]: 4.5 h | AUC [3, 21]: 2000 ng·h/mL | Cmax [3, 21]: 5020 ng/mL | Tmax [3, 21]: 0.05 h | Cmax [3, 22]: 577 ng/mL | Tmax [3, 22]: 0.63 h | AUC ([3]; topical or ocular, Group 4: 2 mg zolmitriptan, transdermal microporation (400 pores/cm^2, 5.2 mJ/filament, 1 cm^2; patch with sucrose 0.5 mg, AA 4 mg)): 1430 ng·h/mL
Structure (SMILES): CN(C)CCc1c[nH]c2ccc(C[C@H]3COC(=O)N3)cc12 [Zolmitriptan]
